Earlier results, collected in patent US10772813B2, “Compositions and methods of administering a colchicine based topical composition for the prevention of radiation fibrosis” (Colradel, LLC, priority 2016, dated 2020).
Entries after “also recorded” stand apart in the source; their conditions may differ.

What was measured:
fibroblasts = details: low doses
[1] = tested on: radiation-induced fibrosis; details: single agent, oral
[2] = topical vs high oral doses

Compound: COc1cc2c(c(OC)c1OC)-c1ccc(OC)c(=O)cc1[C@@H](NC(C)=O)CC2 [colchicine]
- concentration in the skin / dermis (0.2% colchicine ointment compared with 0.5%): same concentration in the dermis 0.5%; also recorded: the same concentration in the skin as 0.5%
- side effects (0.2% formulation (0.2 gram in 100 ml), transdermal ointment): no side effects
- transdermal absorption (ointment, treatment of gout): well-absorbed transdermally
- inhibition of fibroblast migration (fibroblasts): 93%
- side effects (fibroblasts): without any side effects

Compound: CC(=O)CCCCn1c(=O)c2c(ncn2C)n(C)c1=O [pentoxifylline, 3,7-dimethyl-1-5-(5-oxohexyl)-xanthine]
- improvement in late radiation-induced fibrosis [1]: significant improvement

Compound: tocopherol [vitamin E]
- concentration achievable by topical administration versus high doses orally [2]: 11 times
